These compounds were tested against T1, EHMT2 (Homo sapiens, UniProt Q96KQ7) (assay: MDA-MB-231 H3K9me2 in-cell Western assay (EHMT2 ICW)). Details: Table VI; read-out: EHMT2 ICW IC50.
T1 construct: host or cells: MDA-MB-231
T1 sequence (Q96KQ7 1-1210): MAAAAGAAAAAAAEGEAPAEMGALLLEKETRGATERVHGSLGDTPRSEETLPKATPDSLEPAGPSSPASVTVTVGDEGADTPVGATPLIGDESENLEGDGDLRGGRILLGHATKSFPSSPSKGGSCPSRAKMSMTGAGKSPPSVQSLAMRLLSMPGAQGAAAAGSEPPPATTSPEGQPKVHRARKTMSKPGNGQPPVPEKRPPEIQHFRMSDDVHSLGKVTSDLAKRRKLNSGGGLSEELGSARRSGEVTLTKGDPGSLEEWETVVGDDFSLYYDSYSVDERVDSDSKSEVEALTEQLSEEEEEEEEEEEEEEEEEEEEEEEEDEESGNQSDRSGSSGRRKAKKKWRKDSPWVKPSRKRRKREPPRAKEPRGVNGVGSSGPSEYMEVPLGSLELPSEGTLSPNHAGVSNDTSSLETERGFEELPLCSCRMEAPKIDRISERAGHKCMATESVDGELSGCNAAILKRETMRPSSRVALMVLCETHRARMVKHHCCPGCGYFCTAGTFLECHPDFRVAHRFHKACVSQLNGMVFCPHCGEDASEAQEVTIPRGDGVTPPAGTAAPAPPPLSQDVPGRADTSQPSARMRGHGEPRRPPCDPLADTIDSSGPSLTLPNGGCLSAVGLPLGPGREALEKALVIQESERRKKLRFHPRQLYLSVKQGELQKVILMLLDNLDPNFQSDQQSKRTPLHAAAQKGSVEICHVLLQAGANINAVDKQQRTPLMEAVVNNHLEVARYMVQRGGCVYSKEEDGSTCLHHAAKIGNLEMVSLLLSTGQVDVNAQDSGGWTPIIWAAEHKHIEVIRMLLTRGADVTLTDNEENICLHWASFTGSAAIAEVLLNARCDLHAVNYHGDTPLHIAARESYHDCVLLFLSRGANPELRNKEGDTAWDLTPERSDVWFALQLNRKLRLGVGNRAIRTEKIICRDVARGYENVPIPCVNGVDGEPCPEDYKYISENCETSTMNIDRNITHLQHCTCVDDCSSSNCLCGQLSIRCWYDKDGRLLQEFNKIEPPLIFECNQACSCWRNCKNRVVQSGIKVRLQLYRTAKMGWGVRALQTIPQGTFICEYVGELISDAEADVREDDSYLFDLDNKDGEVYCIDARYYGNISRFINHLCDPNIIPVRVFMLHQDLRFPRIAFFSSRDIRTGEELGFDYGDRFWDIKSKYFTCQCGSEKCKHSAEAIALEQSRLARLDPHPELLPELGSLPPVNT
Type: cell-based
Summary of the method: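 MDA-MB-231 cells (3,000/well) were exposed to compound for 30 min at room temperature and then 48 h at 37 °C, fixed with paraformaldehyde, and stained with anti-H3K9me2 (800 nm) plus DRAQ5 (700 nm). Per-well channel ratios gave percent inhibition, and IC50 came from a four-parameter fit of triplicate wells.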
With `CNc1cc(C2CCN(C(C)=O)CC2)c2cc(OC)c(OCCCN3CCCC3)cc2n1` [Compound 809] the IC50 was 100 to 1000 nM.
For `COc1cc2c(C)cc(N3CCCCC3)nc2cc1OCCCN1CCCC1` [Compound 810], the IC50 was 1000 to 10000 nM.
`COc1cc2c(C)nc(N3CCCCC3)nc2cc1OCCCN1CCCC1` [Compound 811] gave an IC50 of over 10000 nM.
`COc1cc2c(C3CCN(C)CC3)cc(N3CCCCC3)nc2cc1OCCCN1CCCC1` [Compound 812] gave an IC50 of 100 to 1000 nM.
Compound `CNc1cc(C)nc(Nc2ccc(OC)c(CN[C@H]3CCNC3)c2)n1` [Compound 813] has an IC50 of over 10000 nM.
`CNc1cc(C)nc(Nc2ccc(OC)c(CN[C@@H]3CCNC3)c2)c1` [Compound 814] was tested, and the IC50 was over 10000 nM.
In the case of `CNc1cc(C2CCCCC2)c2cc(OC)c(OCCCN3CCCC3)cc2n1` [Compound 816], the IC50 is reported as 100 to 1000 nM.
For `CNc1cc(C(C)C)c2cc(OC)c(OCCCN3CCCC3)cc2n1` [Compound 817], the IC50 was 100 to 1000 nM.
With `COc1cc2c(C3CCOCC3)cc(=O)[nH]c2cc1OCCCN1CCCC1` [Compound 822] the IC50 was over 10000 nM.
`CNc1cc(CC2CCOCC2)c2cc(OC)c(OCCCN3CCCC3)cc2n1` [Compound 823] showed an IC50 of 100 to 1000 nM.
`COc1cc2c(C3CCOCC3)cc(N3CCCCC3)nc2cc1OCCCN1CCCC1` [Compound 824] gave an IC50 of 1000 to 10000 nM.
`COc1cc2c(C3CCOCC3)cc(N(C)C)nc2cc1OCCCN1CCCC1` [Compound 825] was tested, and the IC50 was 1000 to 10000 nM.
In the case of `CNc1cc(C2CCN(CCC(F)(F)F)CC2)c2cc(OC)c(OCCCN3CCCC3)cc2n1` [Compound 832], the IC50 is reported as under 100 nM.
`CNc1cc(C2CCN(CC(F)(F)F)CC2)c2cc(OC)c(OCCCN3CCCC3)cc2n1` [Compound 833] gave an IC50 of 100 to 1000 nM.
`COc1cc2c(C3CCN(C(C)=O)CC3)cc(C)nc2cc1OCCCN1CCCC1` [Compound 834] was tested, and the IC50 was 1000 to 10000 nM.
`CCS(=O)(=O)N1CCC(c2cc(C)nc3cc(OCCCN4CCCC4)c(OC)cc23)CC1` [Compound 836] gave an IC50 of 1000 to 10000 nM.
`COc1cc2c(C3CCN(CC(F)(F)F)CC3)cc(C)nc2cc1OCCCN1CCCC1` [Compound 837] showed an IC50 of 1000 to 10000 nM.
For `COc1cc2c(C3CCN(CCC(F)(F)F)CC3)cc(C)nc2cc1OCCCN1CCCC1` [Compound 838], the IC50 was 100 to 1000 nM.
With `CNc1cc(C2CCN(CCOC)CC2)c2cc(OC)c(OCCCN3CCCC3)cc2n1` [Compound 839] the IC50 was under 100 nM.
`COc1cc2c(C3CCN(CC(F)(F)F)CC3)nc(C)nc2cc1OCCCN1CCCC1` [Compound 841] gave an IC50 of over 10000 nM.
With `CNc1cc(C)nc(Nc2ccc(OC)c(C#CC3CCNC3)c2)n1` (stereo not shown) [Compound 845] the IC50 was 100 to 1000 nM.
`CNc1cc(C)nc(Nc2ccc(OC)c(C#CC3CCCN3)c2)n1` (stereo not shown) [Compound 846] gave an IC50 of 100 to 1000 nM.
`CNc1cc(C)nc(Nc2ccc(OC)c(C#CC3CCN(C)C3)c2)n1` (stereo not shown) [Compound 847] was tested, and the IC50 was 1000 to 10000 nM.
Work on `CNc1cc(C)nc(Nc2ccc(OC)c(C#CC3CCCN3C)c2)n1` (stereo not shown) [Compound 848] yielded an IC50 of 100 to 1000 nM.
`CNC(=O)c1cc(C)nc(Nc2ccc(OC)c(OCCCN3CCCC3)c2)n1` [Compound 854] gave an IC50 of over 10000 nM.
`CNc1cc(C)c2cc(OC)c(C#CCN3CCCC3)cc2n1` [Compound 859] showed an IC50 of 100 to 1000 nM.
`CNc1cc(C)nc(Nc2ccc(OC)c(C#CCN3CCN(C)CC3)c2)n1` [Compound 860] was tested, and the IC50 was over 10000 nM.
With `COc1cc2c(C3CCN([C@@H]4CCOC4)CC3)cc(C)nc2cc1OCCCN1CCCC1` [Compound 863] the IC50 was 100 to 1000 nM.

— US20210198277A1, “AMINE-SUBSTITUTED ARYL OR HETEROARYL COMPOUNDS” (Epizyme, Inc., priority 2016, published 2021)
